According to patent US8697725B2, “Tetrahydroquinoline derivatives and their pharmaceutical use” (GlaxoSmithKline LLC, priority 2009, dated 2014):
Structures can show the parent of a compound that is named as a salt.

system: IL-6; test: Measurement of LPS Induced IL-6 Secretion from Whole Blood; type: cell-based; conditions: 24 h, LPS 200 ng/ml, immunoassay, read-out: pIC50, LPS induced IL-6 secretion from whole blood (converted)
Procedure: Measurement of LPS Induced IL-6 Secretion from Whole Blood
Activation of monocytic cells by agonists of toll-like receptors such as bacterial lipopolysaccharide (LPS) results in production of key inflammatory mediators including IL-6. Such pathways are widely considered to be central to the pathophysiology of a range of auto-immune and inflammatory disorders.
Compounds to be tested are diluted to give a range of appropriate concentrations of which 1 ul of the diluted stocks is added to a 96 well plate. Following addition of whole blood (130 ul) the plates are incubated at 37 degrees (5% CO2) for 30 min before the addition of 10 ul of 2.8 ug/ml LPS, diluted in complete RPMI 1640 (final concentration=200 ng/ml), to give a total volume of 140 ul per well. After further incubation for 24 hours at 37 degrees, 140 ul of PBS are added to each well. The plates are sealed, shaken for 10 minutes and then centrifuged (2500 rpm×10 min). 100 ul of the supernatant are removed and IL-6 levels assayed by immunoassay (typically by MesoScale Discovery technology) either immediately or following storage at −20 degrees. Concentration response curves for each compound was generated from the data and an IC50 value was calculated.

IC50, ≤ 31.6 µM:
CC(=O)N1c2ccc(-c3ncc[nH]3)cc2[C@H](NC(=O)OC(C)C)C[C@@H]1C [Example 86, 1-Methylethyl[(2S,4R)-1-acetyl-6-(1H-imidazol-2-yl)-2-methyl-1,2,3,4-tetrahydro-4-quinolinyl]carbamate]
CC(=O)N1c2ccc(-c3noc(CCN)n3)cc2[C@H](NC(=O)OC(C)C)C[C@@H]1C [Example 77, 1-Methylethyl {(2S,4R)-1-acetyl-6-[5-(2-aminoethyl)-1,2,4-oxadiazol-3-yl]-2-methyl-1,2,3,4-tetrahydro-4-quinolinyl}carbamate hydrochloride]
CC(=O)N1c2ccc(-c3ccccn3)cc2[C@H](NC(=O)OC(C)C)C[C@@H]1C [Example 101, 1-Methylethyl[(2S,4R)-1-acetyl-2-methyl-6-(2-pyridinyl)-1,2,3,4-tetrahydro-4-quinolinyl]carbamate]
CC(=O)N1c2ccc(-c3cn(CC(=O)O)nn3)cc2[C@H](NC(=O)OC(C)C)C[C@@H]1C [Example 76, {4-[(2S,4R)-1-Acetyl-2-methyl-4-({[(1-methylethyl)oxy]carbonyl}amino)-1,2,3,4-tetrahydro-6-quinolinyl]-1H-1,2,3-triazol-1-yl}acetic acid]
CC(=O)N1c2ccc(-c3cn(CCCN(C)C)nn3)cc2[C@H](NC(=O)OC(C)C)C[C@@H]1C [Example 81, 1-Methylethyl((2S,4R)-1-acetyl-6-{1-[3-(dimethylamino)propyl]-1H-1,2,3-triazol-4-yl}-2-methyl-1,2,3,4-tetrahydro-4-quinolinyl)carbamate formate salt]
CC(=O)N1c2ccc(-n3cnc(C)c3)cc2[C@H](NC(=O)OC(C)C)C[C@@H]1C [Example 84, 1-Methylethyl[(2S,4R)-1-acetyl-2-methyl-6-(4-methyl-1H-imidazol-1-yl)-1,2,3,4-tetrahydro-4-quinolinyl]carbamate]
CC(=O)N1c2ccc(-c3ccc(CCN)cc3)cc2[C@H](NC(=O)OC(C)C)C[C@@H]1C [Example 96, 1-Methylethyl {(2S,4R)-1-acetyl-6-[4-(2-aminoethyl)phenyl]-2-methyl-1,2,3,4-tetrahydro-4-quinolinyl}carbamate hydrochloride]
CC(=O)N1c2ccc(-c3c[nH]nn3)cc2[C@H](NC(=O)OC(C)C)C[C@@H]1C [Example 65, 1-Methylethyl[(2S,4R)-1-acetyl-2-methyl-6-(1H-1,2,3-triazol-4-yl)-1,2,3,4-tetrahydro-4-quinolinyl]carbamate]
CC(=O)N1c2ccc(-n3cnc(CO)c3)cc2[C@@H](NC(=O)OC(C)C)C[C@H]1C (racemic) [Example 89, 1-Methylethyl {(cis)-1-acetyl-6-[4-(hydroxymethyl)-1H-imidazol-1-yl]-2-methyl-1,2,3,4-tetrahydro-4-quinolinyl}carbamate]
CNCCc1noc(-c2ccc3c(c2)[C@H](NC(=O)OC(C)C)C[C@H](C)N3C(C)=O)n1 [Example 71, 1-Methylethyl((2S,4R)-1-acetyl-2-methyl-6-{3-[2-(methylamino)ethyl]-1,2,4-oxadiazol-5-yl}-1,2,3,4-tetrahydro-4-quinolinyl)carbamate hydrochloride]
CC(=O)N1c2ccc(-n3ccnc3C)cc2[C@H](NC(=O)OC(C)C)C[C@@H]1C [Example 88, 1-Methylethyl[(2S,4R)-1-acetyl-2-methyl-6-(2-methyl-1H-imidazol-1-yl)-1,2,3,4-tetrahydro-4-quinolinyl]carbamate]
CC(=O)N1c2ccc(-n3cnc(C)c3)cc2[C@H](NC(=O)OC(C)C)C[C@@H]1C (single isomer, unassigned) [Example 103]
CC(=O)N1c2ccc(-n3cnc(CNCCO)c3)cc2[C@@H](NC(=O)OC(C)C)C[C@H]1C (racemic) [Example 92, 1-Methylethyl[(cis)-1-acetyl-6-(4-{[(2-hydroxyethyl)amino]methyl}-1H-imidazol-1-yl)-2-methyl-1,2,3,4-tetrahydro-4-quinolinyl]carbamate]
CC(=O)N1c2ccc(-c3cn(C)cn3)cc2[C@H](NC(=O)OC(C)C)CC1C (stereo partly drawn) [Example 83, 1-Methylethyl[(2S,4R)-1-acetyl-2-methyl-6-(1-methyl-1H-imidazol-4-yl)-1,2,3,4-tetrahydro-4-quinolinyl]carbamate hydrochloride]
CC(=O)N1c2ccc(-c3cncn3C)cc2[C@H](NC(=O)OC(C)C)C[C@@H]1C [Example 82, 1-Methylethyl[(2S,4R)-1-acetyl-2-methyl-6-(1-methyl-1H-imidazol-5-yl)-1,2,3,4-tetrahydro-4-quinolinyl]carbamate]
CC(=O)N1c2ccc(-c3noc(CCN(C)C)n3)cc2[C@H](NC(=O)OC(C)C)C[C@@H]1C [Example 78, 1-Methylethyl((2S,4R)-1-acetyl-6-{5-[2-(dimethylamino)ethyl]-1,2,4-oxadiazol-3-yl}-2-methyl-1,2,3,4-tetrahydro-4-quinolinyl)carbamate hydrochloride]
CC(=O)N1c2ccc(-c3nc(CN)no3)cc2[C@H](NC(=O)OC(C)C)C[C@@H]1C [Example 69, 1-Methylethyl {(2S,4R)-1-acetyl-6-[3-(aminomethyl)-1,2,4-oxadiazol-5-yl]-2-methyl-1,2,3,4-tetrahydro-4-quinolinyl}carbamate hydrochloride]
CC(=O)N1c2ccc(-c3cn(CCCN)nn3)cc2[C@H](NC(=O)OC(C)C)C[C@@H]1C [Example 74, 1-Methylethyl {(2S,4R)-1-acetyl-6-[1-(3-aminopropyl)-1H-1,2,3-triazol-4-yl]-2-methyl-1,2,3,4-tetrahydro-4-quinolinyl}carbamate hydrochloride]
CC(=O)N1c2ccc(-c3cn(CCC(=O)O)cn3)cc2[C@@H](NC(=O)OC(C)C)C[C@H]1C (racemic) [Example 99, 3-{(Cis)-4-[1-acetyl-2-methyl-4-({[(1-methylethyl)oxy]carbonyl}amino)-1,2,3,4-tetrahydro-6-quinolinyl]-1H-imidazol-1-yl}propanoic acid trifluoroacetate]
CC(=O)N1c2ccc(-c3ccc(CC(=O)O)cc3)cc2[C@H](NC(=O)OC(C)C)C[C@@H]1C [Example 67, {4-[(2S,4R)-1-Acetyl-2-methyl-4-({[(1-methylethyl)oxy]carbonyl}amino)-1,2,3,4-tetrahydro-6-quinolinyl]phenyl}acetic acid]
CC(=O)N1c2ccc(-c3cnn(CC(C)(C)O)c3)cc2[C@H](NC(=O)OC(C)C)C[C@@H]1C [Example 109, 1-Methylethyl {(2S,4R)-1-acetyl-6-[1-(2-hydroxy-2-methylpropyl)-1H-pyrazol-4-yl]-2-methyl-1,2,3,4-tetrahydro-4-quinolinyl}carbamate]
COCn1cc(-c2ccc3c(c2)[C@H](NC(=O)OC(C)C)C[C@H](C)N3C(C)=O)cn1 [Example 106, 1-Methylethyl((2S,4R)-1-acetyl-2-methyl-6-{1-[(methyloxy)methyl]-1H-pyrazol-4-yl}-1,2,3,4-tetrahydro-4-quinolinyl)carbamate]
CC(=O)N1c2ccc(-c3ccc(CCC(=O)O)cc3)cc2[C@H](NC(=O)OC(C)C)C[C@@H]1C [Example 102, 3-{4-[(2S,4R)-1-Acetyl-2-methyl-4-({[(1-methylethyl)oxy]carbonyl}amino)-1,2,3,4-tetrahydro-6-quinolinyl]phenyl}propanoic acid]
CC(=O)N1c2ccc(-c3cn(CC(=O)O)cn3)cc2[C@@H](NC(=O)OC(C)C)C[C@H]1C (racemic) [Example 90, {4-[(Cis)-1-acetyl-2-methyl-4-({[(1-methylethyl)oxy]carbonyl}amino)-1,2,3,4-tetrahydro-6-quinolinyl]-1H-imidazol-1-yl}acetic acid trifluoroacetate]
CC(=O)N1c2ccc(-c3noc(CN)n3)cc2[C@H](NC(=O)OC(C)C)C[C@@H]1C [Example 66, 1-Methylethyl {(2S,4R)-1-acetyl-6-[5-(aminomethyl)-1,2,4-oxadiazol-3-yl]-2-methyl-1,2,3,4-tetrahydro-4-quinolinyl}carbamate hydrochloride]
CC(=O)N1c2ccc(-n3cnc(C)c3)cc2[C@H](NC(=O)OC(C)(C)C)C[C@@H]1C (relative stereo) [Example 123, 1,1-Dimethylethyl[(cis)-1-acetyl-2-methyl-6-(4-methyl-1H-imidazol-1-yl)-1,2,3,4-tetrahydro-4-quinolinyl]carbamate]
CC(=O)N1c2ccc(-c3cn(CCN)cn3)cc2[C@H](NC(=O)OC(C)C)C[C@@H]1C [Example 85, 1-Methylethyl {(2S,4R)-1-acetyl-6-[1-(2-aminoethyl)-1H-imidazol-4-yl]-2-methyl-1,2,3,4-tetrahydro-4-quinolinyl}carbamate hydrochloride]
